What was measured:
[1] = system: Per2 and Dbp gene expression in MEFs; test: Per2 and Dbp gene expression in serum-entrained MEFs treated with FK866, q-PCR; type: cell-based, mouse; conditions: MEFs pretreated with 10 nM FK866, then serum-stimulated
Procedure: Each quantitative real-time RT-PCR was performed using the Chromo4 real time detection system (BIO-RAD). […] The reaction was first incubated at 95° C. for 3 min, followed by 40 cycles at 95° C. for 30 s and 60° C. for 1 min.

[2] = system: BMAL1 Lys537 acetylation; test: BMAL1 Lys537 acetylation profile in serum-entrained MEFs treated with FK866; type: cell-based, mouse; conditions: cultured MEFs
Procedure: This illustrates Nampt modulation of the circadian clock. Panel A depicts Pert and Dbp gene expression levels in serum-entrained MEFs treated with 10 nM FK866 or EtOH as control (solvent:ctrl) were analyzed by q-PCR. The highest value for each gene in EtOH treated MEFs was set to 1. All data presented are the means±SEM of three independent samples. […] Cell extracts prepared from indicated time points were processed to visualize BMAL1 acetylation using the anti-acetyl specific BMAL1 antibody as described herein. Input samples were probed with anti-BMAL1 and anti-GAPDH antibodies. Panel C is a schematic representation of the transcription-enzymatic interplay by which the circadian machinery governs the intracellular levels of NAD^+. The NAD^+-dependent deacetylase SIRT1 is thereby controlling the oscillatory synthesis of its own coenzyme.
NAMPT inhibitor “FK866” treatment experiments MEFs in growing phase (−50% confluent) were pre-treated with 10 nM FK866 dissolved in ethanol/serum-free DMEM 16 hr prior to high serum treatment. After 2 hr serum treatment, medium were changed to serum-free medium containing 10 nM FK866. […]

[3] = target: Nampt (Homo sapiens, UniProt P43490); conditions: literature (ref. 30); cited from earlier work
Nampt, sequence (P43490 whole entry): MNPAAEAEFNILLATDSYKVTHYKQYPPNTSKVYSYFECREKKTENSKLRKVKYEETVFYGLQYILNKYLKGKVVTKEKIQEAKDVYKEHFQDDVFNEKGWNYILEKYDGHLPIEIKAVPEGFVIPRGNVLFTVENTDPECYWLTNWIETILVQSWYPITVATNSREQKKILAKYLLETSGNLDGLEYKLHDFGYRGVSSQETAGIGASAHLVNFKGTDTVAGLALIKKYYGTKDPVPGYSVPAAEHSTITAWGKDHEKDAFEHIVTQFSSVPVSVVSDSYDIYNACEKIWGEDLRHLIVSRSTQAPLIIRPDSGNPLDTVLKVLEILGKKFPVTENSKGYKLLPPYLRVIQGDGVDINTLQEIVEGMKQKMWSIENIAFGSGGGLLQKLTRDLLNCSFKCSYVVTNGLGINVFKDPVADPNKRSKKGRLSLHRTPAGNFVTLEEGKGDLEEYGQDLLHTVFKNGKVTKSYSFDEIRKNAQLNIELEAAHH

In the case of `O=C(/C=C/c1cccnc1)NCCCCC1CCN(C(=O)c2ccccc2)CC1` [FK866], the “increase of amplitude of oscillation (Per2 and Dbp), average” value [1] is reported as 30-40%, the “onset of the circadian peak for both genes (Per2 and Dbp), earlier by” value [1] is reported as 3 to 4 h and the “BMAL1 acetylation at K537” value ([2]; 10 nM FK866) is reported as “heavily increased and displays a broader peak”. The “effect on BMAL1 protein levels” value ([2]; 10 nM FK866, any time of the circadian cycle) was “no major effect” and the “inhibition of Nampt enzymatic activity” value [3] was “specifically inhibits Nampt enzymatic activity”.

— patent publication US20110269817A1, “COMPOSITIONS AND METHODS RELATED TO SIRT1 FUNCTION” (The Regents of the University of California, priority 2008, published 2011)
